According to ChEMBL document CHEMBL4033723, “Succinamide derivatives of melampomagnolide B and their anti-cancer activities” (2017):

Assays:
Format in all cases: functional
[1] = Induction of apoptosis in human M9-ENL1 cells assessed as cell death after 24 hrs by Annexin V/PI or 7-AAD staining based flow cytometry; conditions: M9-ENL1, 24 h, read-out: LC50 (the source's name)
SK-OV-3 = experiment: Growth inhibition of human SKOV3 cells after 48 hrs by sulforhodamine B assay; conditions: SK-OV-3, 48 h
[2] = Growth inhibition of human M9-ENL1 cells after 24 hrs by trypan blue assay; conditions: M9-ENL1, 24 h
CCRF-CEM = experiment: Growth inhibition of human CCRF-CEM cells after 48 hrs by sulforhodamine B assay
COLO 205 = experiment: Growth inhibition of human COLO205 cells after 48 hrs by sulforhodamine B assay; conditions: COLO 205, 48 h
MCF7 = experiment: Growth inhibition of human MCF7 cells after 48 hrs by sulforhodamine B assay; conditions: MCF7, 48 h
NCI-H522 = experiment: Growth inhibition of human NCI-H522 cells after 48 hrs by sulforhodamine B assay; conditions: NCI-H522, 48 h

| Compound | CC50 [1] [µM] | also measured |
| --- | --- | --- |
| C=C1C(=O)O[C@H]2[C@H]1CC/C(COC(=O)CCC(=O)NCCCCCCCNC(=O)CCC(=O)OC/C1=C/CC[C@@]3(C)O[C@H]3[C@H]3OC(=O)C(=C)[C@@H]3CC1)=C\CC[C@@]1(C)O[C@@H]21 | 15 |  |
| C=C1C(=O)O[C@H]2[C@H]1CC/C(COC(=O)CCC(=O)NCCCN1CCOCC1)=C\CC[C@@]1(C)O[C@@H]21 | 14 |  |
| C=C1C(=O)O[C@H]2[C@H]1CC/C(COC(=O)CCC(=O)Nc1cccc(N)n1)=C\CC[C@@]1(C)O[C@@H]21 | 12 |  |
| C=C1C(=O)O[C@H]2[C@H]1CC/C(COC(=O)CCC(=O)NCc1ccc(Cl)nc1)=C\CC[C@@]1(C)O[C@@H]21 | 14 | GI50 (SK-OV-3): 28 µM; GI50 [2]: 6.5 µM; GI50 (CCRF-CEM): 2.2 µM; GI50 (COLO 205): 3.3 µM; GI50 (MCF7): 3.2 µM; GI50 (NCI-H522): 1.6 µM |
| C=C1C(=O)O[C@H]2[C@H]1CC/C(COC(=O)CCC(=O)NCCN1CCOCC1)=C\CC[C@@]1(C)O[C@@H]21 | 20 |  |
| C=C1C(=O)O[C@H]2[C@H]1CC/C(COC(=O)CCC(=O)NCCCCNC(=O)CCC(=O)OC/C1=C/CC[C@@]3(C)O[C@H]3[C@H]3OC(=O)C(=C)[C@@H]3CC1)=C\CC[C@@]1(C)O[C@@H]21 | 19 |  |
| C=C1C(=O)O[C@H]2[C@H]1CC/C(COC(=O)CCC(=O)NCCCn1ccnc1)=C\CC[C@@]1(C)O[C@@H]21 | > 20 |  |
| C=C1C(=O)O[C@H]2[C@H]1CC/C(COC(=O)CCC(=O)NCCCCCCNC(=O)CCC(=O)OC/C1=C/CC[C@@]3(C)O[C@H]3[C@H]3OC(=O)C(=C)[C@@H]3CC1)=C\CC[C@@]1(C)O[C@@H]21 | 21 |  |
| C=C1C(=O)O[C@H]2[C@H]1CC/C(COC(=O)CCC(=O)Nc1nc(N)n[nH]1)=C\CC[C@@]1(C)O[C@@H]21 | 60 |  |
| C=C1C(=O)O[C@H]2[C@H]1CC/C(COC(=O)CCC(=O)NCc1ccccn1)=C\CC[C@@]1(C)O[C@@H]21 | 14 |  |
| C=C1C(=O)O[C@H]2[C@H]1CC/C(COC(=O)CCC(=O)NCCCCCCCCCCNC(=O)CCC(=O)OC/C1=C/CC[C@@]3(C)O[C@H]3[C@H]3OC(=O)C(=C)[C@@H]3CC1)=C\CC[C@@]1(C)O[C@@H]21 | 12 |  |
| C=C1C(=O)O[C@H]2[C@H]1CC/C(COC(=O)CCC(=O)Nc1n[nH]c(SC)n1)=C\CC[C@@]1(C)O[C@@H]21 | 13 |  |
| C=C1C(=O)O[C@H]2[C@H]1CC/C(COC(=O)CCC(=O)NCCCNC(=O)CCC(=O)OC/C1=C/CC[C@@]3(C)O[C@H]3[C@H]3OC(=O)C(=C)[C@@H]3CC1)=C\CC[C@@]1(C)O[C@@H]21 | 10 |  |
| C=C1C(=O)O[C@H]2[C@H]1CC/C(COC(=O)CCC(=O)NCCc1ccccn1)=C\CC[C@@]1(C)O[C@@H]21 | 13.5 |  |
| C=C1C(=O)O[C@H]2[C@H]1CC/C(COC(=O)CCC(=O)N1CCC(F)(F)CC1)=C\CC[C@@]1(C)O[C@@H]21 | 5.2 |  |
| C=C1C(=O)O[C@H]2[C@H]1CC/C(COC(=O)CCC(=O)NCCCCCNC(=O)CCC(=O)OC/C1=C/CC[C@@]3(C)O[C@H]3[C@H]3OC(=O)C(=C)[C@@H]3CC1)=C\CC[C@@]1(C)O[C@@H]21 | 19 |  |
| C=C1C(=O)O[C@H]2[C@H]1CC/C(COC(=O)CCC(=O)N1CCN(C)CC1)=C\CC[C@@]1(C)O[C@@H]21 | 8.1 |  |
| C=C1C(=O)O[C@@H]2C3O[C@]3(C)CC/C=C(\C)CC[C@@H]12 (some centres undefined) | 7.5 |  |
